This is an account of results in US12496303B2, “Conditioning agents for use in allogeneic hematopoietic stem cell transplantation” (priority 2020, dated 2025).

For series [1], the system named is αCD3-stimulated B6 T cells. The series is described as follows: αCD3-stimulated CFSE-labeled T cell culture. In kind it is cell-based, mouse. The following applies: 72 hours, highest tested dose. The method, then:
FIG. 4A-FIG. 4E. […] (B) Donor chimerism in spleen and bone marrow of mice from panel (A). […] (D) Proliferation and viability of cultures in (C). (E) Cytokines present in supernatants collected from cultures described in (C) after 24 hours incubation. For (C-E), data from three technical replicates are shown from one representative of four experiments. For all panels, data points and error bars represent mean±SEM.
For ex vivo stimulation of primary mouse T cells, 1×10^5 T cells purified from spleen and lymph nodes with the EasySep Mouse T cell Isolation Kit (Stem Cell Technologies; Vancouver, BC, Canada) were cultured with 4×10^5 T-depleted splenocytes in 96-well round bottom plates in R10 media with 1 μg/mL αCD3. Supernatants were collected for cytokine analysis after 24 hours incubation, and cultured cells were analyzed for expansion by flow cytometry at 72 hours.
Cytokine concentrations in culture supernatant or mouse plasma were measured with the LegendPLEX Inflammation Panel (13-plex) or the Mouse Th1 Panel (5-plex) per the manufacturer protocols (BioLegend). Quantification was done using LegendPLEX software v8.0 for Windows. If a cytokine concentration was too low to be quantified, the sample was assigned the value of the lower limit of quantitation. […]

Series [2] is described as follows: MHC-mismatched haploidentical allo-HSCT (CB6F1→B6). It is filed as in vivo, mouse. The method, then: (§1) To investigate the efficacy of ADCs for allo-HSCT conditioning, two transplant models were used (see e.g., FIG. 2A): a miHA-mismatched BALB/c-Ly5.1→DBA/2 model and a haploidentical CB6F1→B6 (F1-to-parent) model MHC-mismatched for H-2d in the host-versus-graft direction. CD45-SAP was chosen for conditioning in these studies to leverage its lymphodepleting activity to overcome graft rejection.
(§2) Mice were injected with CD45-SAP or cKit-SAP at doses indicated in each figure at 7 days pre-transplant (d-7). In general, 3 mg/kg (75 μg) CD45-SAP, and 0.4 mg/kg or 2 mg/kg (10 or 50 μg, respectively) cKit-SAP were used. On transplant day (d0), mice received 10×10^6 whole donor bone marrow cells via the retroorbital injection.
(§3) CD4^+ and CD8^+ T cell depletion was done using clones GK1.5 and YTS169.4, respectively, and NK cell depletion done using clone PK136. […] All antibodies were administered intraperitoneally at 250 μg per dose following the schema for each experiment.
(§4) Immediately prior to injection, these DMSO stocks were thawed, diluted 1:10 in PBS, and injected at 200 μl/mouse subcutaneously (400 μg daily dose).
ALZET subcutaneous osmotic pumps (Model 2004) were used to continuously deliver JAK1/2 inhibitors to mice for 28 days at a rate of 0.25 μL/hour (6 μL/day). A vehicle of 50% dimethyl sulfoxide (DMSO)/50% polyethylene glycol 400 (PEG-400) was used for all experiments. JAK1/2 inhibitors were prepared at 2× concentration (133.3 mg/mL) in 100% DMSO then diluted to 1× with an equal volume of PEG-400 (66.7 mg/mL, 400 μg total daily dose). Prepared compounds were then loaded into osmotic pumps per the manufacturer's instructions and surgically implanted in accordance with our IACUC-approved protocol.

Series [3] can be described thus: miHA-mismatched allo-HSCT (BALB/c-Ly5.1→DBA/2). In kind it is in vivo, mouse. The following applies: CD45-SAP conditioning plus daily baricitinib. The method, then: as §1, §2, §3, §4
Series [4] in a line: minor- and major-mismatched alloHSCT models, summary statements. It is filed as in vivo, mouse. From the text: This example describes the combination of JAK1/JAK2 (JAK1/2) inhibitors and CD45-ADC.
Series [5] is described as follows: acute effects of four days daily baricitinib on blood and lymphoid organs. In kind it is in vivo, B6 mice.
From the text: FIG. 16A-FIG. 16G. […] The color scheme in the legend (upper-right) is used throughout the figure. (A and B) Complete blood counts (A) and organ cellularity of spleen and bone marrow (B). (C) Proportions of HSPC subsets in bone marrow. (D) Absolute B, T, and myeloid (Gr1+ and/or CD11b+) cell counts in spleen, blood, and bone marrow. (E) Frequencies of FoxP3+ Tregs (relative to total CD4+ T cells) in spleen, blood and bone marrow. (F and G) Cell surface phenotyping of splenic T cells (F) and APCs (G). Data points and error bars represent mean±SEM, with mice pooled across 3 experiments. For statistical comparison: ns=not significant, * is p<0.05, ** is p<0.01, *** is p<0.001, and **** is p<0.0001.
as §4

For series [6], the system named is IL-15-stimulated B6 splenic NK cells. The series is described as follows: functional assays of cytokine-stimulated splenic NK cells. It is filed as cell-based, mouse. The method, then:
FIG. 5A-FIG. 5H. […] Data points and error bars represent mean±SEM.
Cytokine concentrations in culture supernatant or mouse plasma were measured with the LegendPLEX Inflammation Panel (13-plex) or the Mouse Th1 Panel (5-plex) per the manufacturer protocols (BioLegend). Quantification was done using LegendPLEX software v8.0 for Windows. If a cytokine concentration was too low to be quantified, the sample was assigned the value of the lower limit of quantitation. For intracellular IFNγ analysis of splenic NK cells, cells were cultured in K10 media with or without cytokine stimulation for 15 hours, with 5 μg/mL Brefeldin A (BioLegend) added to each well for the last 2.5 hours. After this incubation period, cells were fixed, saponin-permeabilized, and stained as described above.

Series [7] can be described thus: solubility testing of baricitinib in osmotic pump vehicles. It is filed as physicochemical.
The nature of series [8]: fully MHC-mismatched allo-HSCT (BALB/c→B6), preliminary. The note with it: continuous baricitinib plus CD45-SAP conditioning, preliminary (not shown). In kind it is in vivo, mouse. From the text: Continued optimization of our conditioning regimens aims to achieve robust, high-level engraftment in fully haploidentical (F1-to-F1) and fully MHC-mismatched allo-HSCT.
Series [9] has as its system NK cell-mediated rejection. As to the kind of experiment: parent-to-F1 allo-HSCT (B6→CB6F1), NK cell-mediated rejection. In kind it is in vivo, mouse. The following applies: CD45-SAP plus baricitinib. The method, then: as §2, §3, §4
[10] abbreviates: CD45-ADC single dose d-7 plus baricitinib for 3-4 weeks.

On to `CCS(=O)(=O)N1CC(CC#N)(n2cc(-c3ncnc4[nH]ccc34)cn2)C1` [baricitinib], for which, in series [1], the “cell death in unstimulated cultures” value was “only subtly increased”. Further, in [2] (CD45-SAP plus continuously-infused baricitinib (osmotic pump, 400 μg daily)), the overall donor chimerism is on record as > 80%. Further, in [2] (CD45-SAP, daily baricitinib and pre-transplant pan-TCD), the overall donor chimerism is given as > 90%. In addition, in series [2] (continuous baricitinib plus CD45-SAP), the engraftment rate is given as ~70%. The “overall multilineage donor chimerism of engrafted mice” value in [3] is ~80%. In series [4] (setting [10]), the donor chimerism entry is given as “up to 90%” and the “share of treated mice achieving the donor chimerism” value was “at least 70 % of the mice”. For the same compound, the “donor chimerism, multilineage alloengraftment” value in [4] (CD45-targeted ADCs combined with baricitinib) is recorded as 80-90%. The “immunophenotyping of splenic T cell and APC compartments” value in series [5] (baricitinib- vs vehicle-treated) was “no differences”. Besides, in series [5] (daily baricitinib 4 days), the “B cells in spleens” value is reported as “lower frequencies of B cells”, the “CBCs or bone marrow cellularity” value is reported as “minimally affected”, the “bone marrow HSPC numbers” value is reported as “largely unaffected” and the spleen cellularity result is given as “significant reduction”. In addition, in series [5] (daily baricitinib 4 days, bone marrow), the “frequencies of long-term HSC and megakaryocyte-erythroid progenitors” value is on record as “somewhat lower frequencies”. Also, the “nonspecific toxicity in unstimulated NK cultures” value in [6] was “modest and noted only at the highest baricitinib doses”. In series [7] (DMSO mixed 1:1 with PEG-400), the solubility entry is given as “readily soluble”. For the same compound, in series [7] (DMSO/PEG-400 vehicle, 30-day incubation at 37° C.), the solubility after incubation entry is listed as “remained soluble”. Besides, the engraftment success in series [8] is reported as ~25%. In series [9], the overall donor chimerism is given as ~60%.
